Results on 54 compounds are retold here after US7119073B2, “Peptides and their use as inhibitors of hepatitis C virus ns3 protease” (Istituto Di Ricerche Di Biologia Molecolare P. Angeletti SpA, priority 2001, dated 2006).

In the first test the target is T1, NS3 protease domain complexed to a modified form of the NS4A peptide (Pep4AK) (Hepatitis C virus genotype 1b, UniProt P26663).
T1 construct: NS3 protease domain (residues 1027–1206 of the HCV polyprotein)
T1 sequence (P26663 1027-1206, other chains not shown): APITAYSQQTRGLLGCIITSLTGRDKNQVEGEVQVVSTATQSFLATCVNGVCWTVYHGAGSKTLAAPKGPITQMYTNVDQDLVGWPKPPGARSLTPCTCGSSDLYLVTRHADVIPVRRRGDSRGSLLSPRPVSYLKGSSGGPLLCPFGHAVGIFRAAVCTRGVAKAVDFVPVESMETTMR
Put plainly: HCV NS3 protease domain/NS4A cofactor peptide assay (Assay B). The test is classed as biochemical. Conditions: Table 1; NS3 protease domain/Pep4AK, 4AB peptide substrate; read-out: Assay B.
In the case of `CC(C)COC(=O)NC(CCC(=O)O)C(=O)NC(CC(C)C)C(=O)NC(CS)C(=O)NCCc1ccc(C(F)(F)F)cc1` (stereo not drawn) [Compound 149], the IC50 is less than 100 µM.

Consider `COC(=O)c1ccc(CCNC(=O)C(CS)NC(=O)C(CC(C)C)NC(=O)C(CCC(=O)O)NC(=O)OCC(C)C)cc1` (stereo not drawn) [Compound 150], for which the IC50 was less than 100 µM.

Consider `CC(C)COC(=O)NC(C(=O)NC(CC(C)C)C(=O)NC(CS)C(=O)NCCc1ccc(C(=O)O)cc1)C(C)C` (stereo not drawn) [Compound 152], for which the IC50 was less than 10 µM.

In the case of `COC(=O)Cc1ccc(CCNC(=O)C(CS)NC(=O)C(CC(C)C)NC(=O)C(CCC(=O)O)NC(=O)OCC(C)C)cc1` (stereo not drawn) [Compound 153], the IC50 was less than 100 µM.

On to `COC(=O)CCc1ccc(CCNC(=O)C(CS)NC(=O)C(CC(C)C)NC(=O)C(CCC(=O)O)NC(=O)OCC(C)C)cc1` (stereo not drawn) [Compound 155], for which the IC50 was less than 100 µM.

As for `CCOC(=O)/C=C/c1ccc(CCNC(=O)[C@H](CS)NC(=O)[C@H](CC(C)C)NC(=O)[C@H](CCC(=O)O)NC(=O)OCC(C)C)cc1` [Compound 157], the IC50 is less than 10 µM.

Consider `CC(C)COC(=O)N[C@@H](CCC(=O)O)C(=O)N[C@@H](CC(C)C)C(=O)N[C@@H](CS)C(=O)NCCc1ccc(/C=C/C(=O)O)cc1` [Compound 158], for which the IC50 is less than 10 µM.

On to `CC(C)COC(=O)NC(CCC(=O)O)C(=O)NC(CC(C)C)C(=O)NC(CS)C(=O)NCCc1ccc(S(N)(=O)=O)cc1` (stereo not drawn) [Compound 159], for which the IC50 is less than 10 µM.

On to `CC(=O)NS(=O)(=O)c1ccc(CCNC(=O)C(CS)NC(=O)C(CC(C)C)NC(=O)C(CCC(=O)O)NC(=O)OCC(C)C)cc1` (stereo not drawn) [Compound 160], for which the IC50 was less than 10 µM.

In the case of `CC(C)COC(=O)NC(CCC(=O)O)C(=O)NC(CC(C)C)C(=O)NC(CS)C(=O)NCCc1ccc(S(=O)(=O)NC(=O)C(C)C)cc1` (stereo not drawn) [Compound 161], the IC50 was less than 10 µM.

Turning to `CC(C)COC(=O)NC(CCC(=O)O)C(=O)NC(CC(C)C)C(=O)NC(CS)C(=O)NCCc1ccc(S(=O)(=O)NC(=O)c2ccccc2)cc1` (stereo not drawn) [Compound 162], the IC50 is less than 10 µM.

In the case of `CCCCc1ccnc(C(=O)NS(=O)(=O)c2ccc(CCNC(=O)[C@H](CS)NC(=O)[C@H](CC(C)C)NC(=O)[C@H](CCC(=O)O)NC(=O)OCC(C)C)cc2)c1` [Compound 163], the IC50 is less than 10 µM.

On to `CC(C)COC(=O)N[C@@H](CCC(=O)O)C(=O)N[C@@H](CC(C)C)C(=O)N[C@@H](CS)C(=O)NCCc1ccc(Cl)cc1Cl` [Compound 165], for which the IC50 is less than 10 µM.

Take `CC(C)COC(=O)NC(CCC(=O)O)C(=O)NC(CC(C)C)C(=O)NC(CS)C(=O)NCCc1ccc(Cl)c(Cl)c1` (stereo not drawn) [Compound 172]: the IC50 is less than 100 µM.

Take `COc1ccc(OC)c(CCNC(=O)C(CS)NC(=O)C(CC(C)C)NC(=O)C(CCC(=O)O)NC(=O)OCC(C)C)c1` (stereo not drawn) [Compound 174]: the IC50 was less than 100 µM.

Turning to `COc1cc(CCNC(=O)C(CS)NC(=O)C(CC(C)C)NC(=O)C(CCC(=O)O)NC(=O)OCC(C)C)ccc1O` (stereo not drawn) [Compound 175], the IC50 was less than 100 µM.

Take `COc1ccc(CCNC(=O)C(CS)NC(=O)C(CC(C)C)NC(=O)C(CCC(=O)O)NC(=O)OCC(C)C)cc1Br` (stereo not drawn) [Compound 176]: the IC50 is less than 100 µM.

With `CC(C)COC(=O)NC(C(=O)NC(CC(C)C)C(=O)NC(CC(F)F)C(=O)NCCc1ccc(C(=O)O)cc1Cl)C(C)C` (stereo not drawn) [Compound 179], the IC50 was less than 10 µM.

As to `CC(C)C[C@H](NC(=O)[C@@H](NC(=O)OCC1CCCC1)C(C)C)C(=O)N[C@@H](CS)C(=O)NCCc1ccc(C(=O)O)cc1Cl` [Compound 181], the IC50 was less than 10 µM.

For the compound `CC(C)CC(NC(=O)C(NC(=O)OC1CCS(=O)(=O)CC1)C(C)C)C(=O)NC(CS)C(=O)NCCc1ccc(C(=O)O)cc1Cl` (stereo not drawn) [Compound 182], the IC50 is less than 100 µM.

For `CC(C)C[C@H](NC(=O)[C@@H](NC(=O)OCC1CCOC1)C(C)C)C(=O)N[C@@H](CS)C(=O)NCCc1ccc(C(=O)O)cc1Cl` (stereo partly drawn) [Compound 183], the IC50 was less than 10 µM.

For the compound `CC(C)CCOC(=O)NC(C(=O)NC(CC(C)C)C(=O)NC(CS)C(=O)NCCc1ccc(C(=O)O)cc1Cl)C(C)C` (stereo not drawn) [Compound 184], the IC50 was less than 10 µM.

Take `COC(=O)c1ccc(CCNC(=O)C(CS)NC(=O)C(CC(C)C)NC(=O)C(CCC(=O)O)NC(=O)OCC(C)C)c(F)c1` (stereo not drawn) [Compound 185]: the IC50 was less than 100 µM.

Take `CC(C)COC(=O)NC(CCC(=O)O)C(=O)NC(CC(C)C)C(=O)NC(CS)C(=O)NCCc1ccc(C(=O)O)cc1F` (stereo not drawn) [Compound 186]: the IC50 was less than 1 µM.

As to `CC(C)COC(=O)NC(CCC(=O)O)C(=O)NC(CC(C)C)C(=O)NC(CC(F)F)C(=O)NCCc1c(F)cc(C(=O)O)cc1F` (stereo not drawn) [Compound 187], the IC50 is less than 1 µM.

As to `CC(C)COC(=O)N[C@@H](CCC(=O)O)C(=O)N[C@@H](CC(C)C)C(=O)N[C@@H](CS)C(=O)NCCc1cn(CC(=O)O)c2ccccc12` [Compound 188], the IC50 was less than 10 µM.

For `CC(C)COC(=O)NC(CCC(=O)O)C(=O)NC(CC(C)C)C(=O)NC(CS)C(=O)NCCc1c[nH]c2ccccc12` (stereo not drawn) [Compound 189], the IC50 was less than 100 µM.

Turning to `CC(C)COC(=O)N[C@@H](CCC(=O)O)C(=O)N[C@@H](CC(C)C)C(=O)N[C@@H](CS)C(=O)NCCc1ccsc1` [Compound 190], the IC50 is less than 10 µM.

On to `CC(C)COC(=O)NC(CCC(=O)O)C(=O)NC(CC(C)C)C(=O)NC(CS)C(=O)NCCc1cccs1` (stereo not drawn) [Compound 191], for which the IC50 was less than 100 µM.

Regarding `CC(C)COC(=O)NC(CCC(=O)O)C(=O)NC(CC(C)C)C(=O)NC(CS)C(=O)NCCc1ccc2ccccc2c1` (stereo not drawn) [Compound 192], the IC50 is less than 100 µM.

In the case of `CC(C)COC(=O)NC(CCC(=O)O)C(=O)NC(CC(C)C)C(=O)NC(CS)C(=O)NCCc1cccnc1` (stereo not drawn) [Compound 193], the IC50 was less than 100 µM.

The same test, now with this note: Table 2; NS3 protease domain/Pep4AK; read-out: Assay B.
For `CC(C)C[C@H](NC(=O)[C@H](CCC(=O)O)NC(=O)c1ccco1)C(=O)N[C@@H](CS)C(=O)NCCc1ccccc1Cl` [Compound 201], the IC50 is less than 100 µM.

For `COc1ccc(CCNC(=O)[C@H](CS)NC(=O)[C@H](CC(C)C)NC(=O)[C@H](CCC(=O)O)NC(=O)c2ccccc2)cc1` [Compound 202], the IC50 is less than 100 µM.

Consider `CC(C)C[C@H](NC(=O)[C@H](CCC(=O)O)NC(=O)c1ccc2c(c1)OCO2)C(=O)N[C@@H](CS)C(=O)NCCc1ccccc1Cl` [Compound 203], for which the IC50 was less than 100 µM.

As for `COc1ccc(CCNC(=O)[C@H](CS)NC(=O)[C@H](CC(C)C)NC(=O)[C@H](CCC(=O)O)NC(=O)c2ccc3c(c2)OCO3)cc1` [Compound 204], the IC50 is less than 100 µM.

With `COc1ccc(C(=O)N[C@@H](CCC(=O)O)C(=O)N[C@@H](CC(C)C)C(=O)N[C@@H](CS)C(=O)NCCc2ccccc2Cl)cc1OC` [Compound 205], the IC50 is less than 100 µM.

With `CC(C)C[C@H](NC(=O)[C@H](CCC(=O)O)NC(=O)c1cccc(Br)c1)C(=O)N[C@@H](CS)C(=O)NCCc1ccccc1Cl` [Compound 206], the IC50 was less than 100 µM.

As to `COc1ccc(CCNC(=O)[C@H](CS)NC(=O)[C@H](CC(C)C)NC(=O)[C@H](CCC(=O)O)NC(=O)c2ccc(C#N)cc2)cc1` [Compound 207], the IC50 was less than 100 µM.

With `CC(C)C[C@H](NC(=O)[C@H](CCC(=O)O)NC(=O)c1cc(O)ccc1N)C(=O)N[C@@H](CS)C(=O)NCCc1ccccc1Cl` [Compound 208], the IC50 was less than 100 µM.

For the compound `CC(C)C[C@H](NC(=O)[C@H](CCC(=O)O)NC(=O)c1ccncc1N)C(=O)N[C@@H](CS)C(=O)NCCc1ccccc1Cl` [Compound 209], the IC50 is less than 100 µM.

On to `Cc1nn(Cc2cccc(C(=O)N[C@@H](CCC(=O)O)C(=O)N[C@@H](CC(C)C)C(=O)N[C@@H](CS)C(=O)NCCc3ccccc3Cl)c2)c(C)c1Br` [Compound 210], for which the IC50 is less than 100 µM.

As to `CC(C)C[C@H](NC(=O)[C@H](CCC(=O)O)NC(=O)c1ccccc1-c1ccccc1C(=O)O)C(=O)N[C@@H](CS)C(=O)NCCc1ccccc1Cl` [Compound 211], the IC50 is less than 100 µM.

`CC(C)C[C@H](NC(=O)[C@H](CCC(=O)O)NC(=O)c1cc2ccccc2s1)C(=O)N[C@@H](CS)C(=O)NCCc1ccccc1Cl` [Compound 212]: the IC50 was less than 100 µM.

`COc1ccc(CCNC(=O)[C@H](CS)NC(=O)[C@H](CC(C)C)NC(=O)[C@H](CCC(=O)O)NC(=O)c2cc3ccccc3s2)cc1` [Compound 213]: the IC50 is less than 100 µM.

Consider `COc1ccc(CCNC(=O)[C@H](CS)NC(=O)[C@H](CC(C)C)NC(=O)[C@H](CCC(=O)O)NC(=O)c2ccco2)cc1` [Compound 214], for which the IC50 was less than 100 µM.

With `CC(C)C[C@H](NC(=O)[C@H](CCC(=O)O)NC(=O)Cc1ccccc1)C(=O)N[C@@H](CS)C(=O)NCCc1ccccc1Cl` [Compound 215], the IC50 is less than 100 µM.

In the case of `COc1ccc(CCNC(=O)[C@H](CS)NC(=O)[C@H](CC(C)C)NC(=O)[C@H](CCC(=O)O)NC(=O)Cc2ccccc2)cc1` [Compound 216], the IC50 is less than 100 µM.

In the case of `CC(C)C[C@H](NC(=O)[C@H](CCC(=O)O)NC(=O)CCc1ccccc1)C(=O)N[C@@H](CS)C(=O)NCCc1ccc(Cl)cc1Cl` [Compound 217], the IC50 is less than 100 µM.

With `CC(C)C[C@H](NC(=O)[C@H](CCC(=O)O)NC(=O)/C=C/c1ccc([N+](=O)[O-])cc1)C(=O)N[C@@H](CS)C(=O)NCCc1ccccc1Cl` [Compound 218], the IC50 was less than 100 µM.

As for `CC(C)C[C@H](NC(=O)[C@H](CCC(=O)O)NC(=O)C1C[C@H]1c1ccccc1)C(=O)N[C@@H](CS)C(=O)NCCc1ccccc1Cl` (stereo partly drawn) [Compound 219], the IC50 is less than 100 µM.

With `COc1ccc(CCNC(=O)[C@H](CS)NC(=O)[C@H](CC(C)C)NC(=O)[C@H](CCC(=O)O)NC(=O)C2C[C@H]2c2ccccc2)cc1` (stereo partly drawn) [Compound 220], the IC50 was less than 100 µM.

With `CC(C)C[C@H](NC(=O)[C@H](CCC(=O)O)NC(=O)[C@@H](O)c1ccccc1)C(=O)N[C@@H](CS)C(=O)NCCc1ccccc1Cl` [Compound 221], the IC50 was less than 10 µM.

With `CC(C)C[C@H](NC(=O)[C@H](CCC(=O)O)NC(=O)Cc1ccsc1)C(=O)N[C@@H](CS)C(=O)NCCc1ccccc1Cl` [Compound 222], the IC50 was less than 100 µM.

For `COc1ccc(CCNC(=O)[C@H](CS)NC(=O)[C@H](CC(C)C)NC(=O)[C@H](CCC(=O)O)NC(=O)Cc2cccs2)cc1` [Compound 223], the IC50 was less than 100 µM.
